Laboratory results reported in US11040035B2, “3-oxo-2,6-diphenyl-2,3-dihydropyridazine-4-carboxamides” (BAYER PHARMA AKTIENGESELLSCHAFT, priority 2016, dated 2021).

How the values were obtained:
AHR [1] = molecular target: T1, AHR (Homo sapiens, UniProt P35869); test: In vitro assay 1: antagonism in human cell line (transactivation assay, kynurenic acid prestimulated); conditions: Assay 1: AHR-luc Hum Antagonism IC50 [M], 150 μM kynurenic acid, 20 hours, firefly luciferase
T1 sequence (P35869 11-848): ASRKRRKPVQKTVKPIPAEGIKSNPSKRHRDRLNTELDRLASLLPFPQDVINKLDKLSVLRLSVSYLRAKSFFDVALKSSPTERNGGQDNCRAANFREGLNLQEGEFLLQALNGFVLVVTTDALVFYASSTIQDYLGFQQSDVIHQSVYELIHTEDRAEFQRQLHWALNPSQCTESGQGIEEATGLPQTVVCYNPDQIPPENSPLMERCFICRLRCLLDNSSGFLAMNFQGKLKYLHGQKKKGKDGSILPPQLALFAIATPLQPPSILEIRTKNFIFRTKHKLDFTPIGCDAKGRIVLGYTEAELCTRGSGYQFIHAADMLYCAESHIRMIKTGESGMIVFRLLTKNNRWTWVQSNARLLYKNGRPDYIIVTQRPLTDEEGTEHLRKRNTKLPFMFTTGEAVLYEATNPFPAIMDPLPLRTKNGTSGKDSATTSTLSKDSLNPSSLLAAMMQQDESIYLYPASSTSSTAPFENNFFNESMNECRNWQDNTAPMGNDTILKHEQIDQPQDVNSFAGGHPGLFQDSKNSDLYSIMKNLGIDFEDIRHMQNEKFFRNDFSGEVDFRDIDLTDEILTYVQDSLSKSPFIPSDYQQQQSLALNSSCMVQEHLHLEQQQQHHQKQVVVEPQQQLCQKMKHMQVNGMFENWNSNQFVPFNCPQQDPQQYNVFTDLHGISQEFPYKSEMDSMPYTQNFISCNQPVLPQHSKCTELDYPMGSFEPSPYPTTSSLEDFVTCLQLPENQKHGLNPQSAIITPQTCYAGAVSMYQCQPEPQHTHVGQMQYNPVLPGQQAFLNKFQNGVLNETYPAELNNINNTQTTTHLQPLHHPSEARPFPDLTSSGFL

AHR [2] = molecular target: T1, AHR; test: In vitro assay 2: agonism in human cell line (transactivation assay); conditions: Assay 2: AHR-luc Hum Agonism IC50 [M], no kynurenic acid, 20 hours, firefly luciferase
[3] = system: AHR-regulated gene CYP1A1; test: In vitro assay 3: AHR-regulated CYP1A1 expression in human cell line (U937, qPCR); conditions: Homo sapiens, U-937, 6 h, read-out: Assay 3: Hum CYP1A1 Antagonism IC50 [M], U937 cells, 200 μM KA, 6 hours, qPCR

`CC(C)C[C@@H](CO)NC(=O)c1cc(-c2ccc(Cl)cc2)nn(-c2cccc(F)c2)c1=O` [Example 37, 6-(4-Chlorophenyl)-2-(3-fluorophenyl)-N-[(2S)-1-hydroxy-4-methylpentan-2-yl]-3-oxo-2,3-dihydropyridazine-4-carboxamide] gave an IC50 (AHR [1]) of 1.31e-07 M, an IC50 (AHR [2]) of over 2e-05 M and an IC50 [3] of 1.56e-07 M.
`CC(C)[C@@H](CO)NC(=O)c1cc(-c2ccc(Cl)cc2)nn(-c2cc(F)cc(F)c2)c1=O` [Example 43, 6-(4-Chlorophenyl)-2-(3,5-difluorophenyl)-N-[(2S)-1-hydroxy-3-methylbutan-2-yl]-3-oxo-2,3-dihydropyridazine-4-carboxamide] was tested, and the IC50 (AHR [1]) was 4.89e-09 M, the IC50 (AHR [2]) was over 2e-05 M and the IC50 [3] was 1.08e-08 M.
In the case of `C[C@@H](CO)NC(=O)c1cc(-c2ccc(Cl)cc2)nn(-c2cc(F)cc(F)c2)c1=O` [Example 47, 6-(4-Chlorophenyl)-2-(3,5-difluorophenyl)-N-[(2S)-1-hydroxypropan-2-yl]-3-oxo-2,3-dihydropyridazine-4-carboxamide], the IC50 (AHR [1]) is reported as 3.08e-08 M, the IC50 (AHR [2]) is reported as over 2e-05 M and the IC50 [3] is reported as 2.52e-08 M.
Work on `Cc1ccc(-c2cc(C(=O)N[C@H](CO)C(C)C)c(=O)n(-c3cc(F)cc(F)c3)n2)cc1` [Example 51, 2-(3,5-Difluorophenyl)-N-[(2S)-1-hydroxy-3-methylbutan-2-yl]-6-(4-methylphenyl)-3-oxo-2,3-dihydropyridazine-4-carboxamide] yielded an IC50 (AHR [1]) of 4.16e-09 M, an IC50 (AHR [2]) of over 2e-05 M and an IC50 [3] of 1.15e-09 M.
Compound `Cc1ccc(-c2cc(C(=O)N[C@@H](C)CO)c(=O)n(-c3cc(F)cc(F)c3)n2)cc1` [Example 55, 2-(3,5-Difluorophenyl)-N-[(2S)-1-hydroxypropan-2-yl]-6-(4-methylphenyl)-3-oxo-2,3-dihydropyridazine-4-carboxamide] has an IC50 (AHR [1]) of 1.8e-08 M, an IC50 (AHR [2]) of over 2e-05 M and an IC50 [3] of 1.54e-08 M.
With `O=C(NC(CO)C(F)(F)F)c1cc(-c2ccc(Cl)cc2)nn(-c2cccc(F)c2)c1=O` (stereo not drawn) [Example 97, 6-(4-Chlorophenyl)-2-(3-fluorophenyl)-3-oxo-N-(1,1,1-trifluoro-3-hydroxypropan-2-yl)-2,3-dihydropyridazine-4-carboxamide] the IC50 (AHR [1]) was 1.5e-08 M, the IC50 (AHR [2]) was over 2e-05 M and the IC50 [3] was 1.63e-08 M.
Compound `O=C(N[C@H]1CCC[C@H]1O)c1cc(-c2ccc(Cl)cc2)nn(-c2cccc(F)c2)c1=O` [Example 111, 6-(4-Chlorophenyl)-2-(3-fluorophenyl)-N-[(1S,2R)-2-hydroxycyclopentyl]-3-oxo-2,3-dihydropyridazine-4-carboxamide] has an IC50 (AHR [1]) of 2.03e-08 M, an IC50 (AHR [2]) of over 2e-05 M and an IC50 [3] of 2.91e-08 M.
`C[C@H](O)[C@H](C)NC(=O)c1cc(-c2ccc(Cl)cc2)nn(-c2cccc(F)c2)c1=O` [Example 114, 6-(4-Chlorophenyl)-2-(3-fluorophenyl)-N-[(2S,3S)-3-hydroxybutan-2-yl]-3-oxo-2,3-dihydropyridazine-4-carboxamide] was tested, and the IC50 (AHR [1]) was 2.3e-08 M, the IC50 (AHR [2]) was over 2e-05 M and the IC50 [3] was 5.27e-08 M.
`O=C(N[C@H]1CCC[C@@H]1O)c1cc(-c2ccc(Cl)cc2)nn(-c2cccc(F)c2)c1=O` [Example 115, 6-(4-Chlorophenyl)-2-(3-fluorophenyl)-N-[(1S,2S)-2-hydroxycyclopentyl]-3-oxo-2,3-dihydropyridazine-4-carboxamide] was tested, and the IC50 (AHR [1]) was 2.72e-08 M, the IC50 (AHR [2]) was over 2e-05 M and the IC50 [3] was 1.31e-08 M.
In the case of `CC(O)C(C)NC(=O)c1cc(-c2ccc(Cl)cc2)nn(-c2cccc(F)c2)c1=O` (stereo not drawn) [Example 131, 6-(4-Chlorophenyl)-2-(3-fluorophenyl)-N-(3-hydroxybutan-2-yl]-3-oxo-2,3-dihydropyridazine-4-carboxamide], the IC50 (AHR [1]) is reported as 4.69e-08 M, the IC50 (AHR [2]) is reported as over 2e-05 M and the IC50 [3] is reported as 8.26e-08 M.
`O=C(N[C@@H]1CCCC[C@H]1O)c1cc(-c2ccc(Cl)cc2)nn(-c2cccc(F)c2)c1=O` [Example 164, 6-(4-Chlorophenyl)-2-(3-fluorophenyl)-N-[(1R,2R)-2-hydroxycyclohexyl]-3-oxo-2,3-dihydropyridazine-4-carboxamide] was tested, and the IC50 (AHR [1]) was 5.96e-07 M, the IC50 (AHR [2]) was over 2e-05 M and the IC50 [3] was 2e-06 M.
